The results in this text go back to patent US10124012B2, “Method for treatment of hyperglycemia and hyperlipidemia” (priority 2016, dated 2018).

What all share (type): in vivo, C57BL/6J mice
Experiment [1] relates to high-fat diet-fed C57BL/6J mouse. The experiment is described as follows: Hepatic lipids in HFD-fed mice. As for the experimental part: Animal studies were performed and approved under the guidelines of the Institutional Animal Care and Use Committee in Taiwan (12 Mar. 2015). […] After acclimatization for one week, all of the mice were randomly assigned into a control (CON) group and a high-fat diet (HFD) group. For the following 12 weeks, the CON group (n=9) received a control diet or a low-fat diet (Diet 12450B, Research Diets, Inc., New Brunswick, N.J., USA), while the HFD group (n=54) received a high-fat diet (Diet 12451, Research Diets, New Brunswick, N.J., USA). […] After HFD feeding for 8 weeks, the HFD group was randomly subdivided into six groups (n=9 per group) receiving different treatments and fed on HFD. […] The HF+AnK1, HF+AnK2, and HF+AnK3 groups are collectively termed AnK-treated HFD groups in the following examples. The CON mice were administered vehicle. All treatments were administered via oral gavage once daily. After administration for 4 weeks, all mice were fasted 12 hours, and blood was collected from the retro-orbital sinus under ether anesthesia. At the end of the experiment, the mice were sacrificed via carbon dioxide inhalation. Liver, adipose tissue, and skeletal muscle were collected and immediately stored at −80° C. for target gene analysis.

Experiment [2] shares this test system. The experiment is described as follows: Histopathology of liver (hepatocellular ballooning). The following applies: grade 0 absence, 1 few cells, 2 many cells (Table 4), HFD-fed mice. The protocol:
Animal studies were performed and approved under the guidelines of the Institutional Animal Care and Use Committee in Taiwan (12 Mar. 2015). The 4-week old male C57BL/6J mice (total amount n=63) were obtained from the National Laboratory Animal Center (Taipei, Taiwan). After acclimatization for one week, all of the mice were randomly assigned into a control (CON) group and a high-fat diet (HFD) group. For the following 12 weeks, the CON group (n=9) received a control diet or a low-fat diet (Diet 12450B, Research Diets, Inc., New Brunswick, N.J., USA), while the HFD group (n=54) received a high-fat diet (Diet 12451, Research Diets, New Brunswick, N.J., USA). The low-fat diet was composed of protein 20%, carbohydrate 70% and fat 10%, whereas the high-fat diet was composed of protein 20%, carbohydrate 35%, and fat 45% (of total energy, % kcal). After HFD feeding for 8 weeks, the HFD group was randomly subdivided into six groups (n=9 per group) receiving different treatments and fed on HFD. […] The HF+AnK1, HF+AnK2, and HF+AnK3 groups are collectively termed AnK-treated HFD groups in the following examples. The CON mice were administered vehicle. All treatments were administered via oral gavage once daily. After administration for 4 weeks, all mice were fasted 12 hours, and blood was collected from the retro-orbital sinus under ether anesthesia. At the end of the experiment, the mice were sacrificed via carbon dioxide inhalation. Liver, adipose tissue, and skeletal muscle were collected and immediately stored at −80° C. for target gene analysis.
Parts of visceral adipose and liver specimens were fixed with formalin (200 g/kg) neutral buffered solution and embedded in paraffin. A series of 8 μm-thick sections was cut and stained with hematoxylin and eosin. For microscopic examination, a microscope (Olympus BX51, Olympus, Tokyo, Japan) was used and the images were photographed.
On the basis of previous study, the degree of hepatocellular ballooning is defined in TABLE 4: […]

The subject of a further experiment is G6Pase. The experiment is described as follows: Liver mRNA by semi-quantitative RT-PCR: G6Pase. The following applies: HFD-fed mice, oral gavage once daily 4 weeks, AnK 10, 20, 40, Feno 250, Metf 300 mg/kg/day, vs HF group. From the text: (§1) The 4-week old male C57BL/6J mice (total amount n=63) were obtained from the National Laboratory Animal Center (Taipei, Taiwan). After acclimatization for one week, all of the mice were randomly assigned into a control (CON) group and a high-fat diet (HFD) group. […] After HFD feeding for 8 weeks, the HFD group was randomly subdivided into six groups (n=9 per group) receiving different treatments and fed on HFD. […] The HF+AnK1, HF+AnK2, and HF+AnK3 groups are collectively termed AnK-treated HFD groups in the following examples. The CON mice were administered vehicle. All treatments were administered via oral gavage once daily. After administration for 4 weeks, all mice were fasted 12 hours, and blood was collected from the retro-orbital sinus under ether anesthesia. […]
(§2) Total RNA from liver tissue of mice was isolated with a Trizol Reagent (Molecular Research Center, Inc., Cincinnati, Ohio, USA) according to the manufacturer's instructions. The integrity of the extracted total RNA was examined by 2% agarose gel electrophoresis, and the RNA concentration was determined by the ultraviolet (UV) light absorbency at 260 nm and 280 nm (Spectrophotometer U-2800A, Hitachi). […]
(§3) Levels of mRNA of target genes were quantified by semi-quantitative reverse transcription polymerase chain reaction (RT-PCR). […] PCR products were analyzed by 2% agarose gel and stained with ethidium bromide.

In another experiment the test system is DGAT2. As to the kind of experiment: Liver mRNA by semi-quantitative RT-PCR: DGAT2. The following applies: HFD-fed mice, oral gavage once daily 4 weeks, AnK 10, 20, 40, Feno 250, Metf 300 mg/kg/day, vs HF group.
Source text: as §1, §2, §3

The subject of a further experiment is apoCIII. The experiment is described as follows: Liver mRNA by semi-quantitative RT-PCR: apoCIII. The following applies: HFD-fed mice, oral gavage once daily 4 weeks, AnK 10, 20, 40, Feno 250, Metf 300 mg/kg/day, vs HF group.
Source text: as §1, §2, §3

The mark [3] stands for this setting: HF + AnK1: AnK 10 mg/kg/day oral gavage 4 weeks.
[4] abbreviates: HF + AnK2: AnK 20 mg/kg/day oral gavage 4 weeks.
Setting [5] is: HF + AnK3: AnK 40 mg/kg/day oral gavage 4 weeks.
Where [6] appears, read: HF + Metf: metformin 300 mg/kg/day oral gavage 4 weeks.

Take `C=C(CC[C@@H](C)[C@H]1CC[C@H]2C3=C(C(=O)C[C@]12C)[C@@]1(C)CC[C@@H](O)[C@](C)(O)[C@@H]1C[C@@H]3O)C(C)C(=O)O` (stereo partly drawn) [AnK, 3α,4β,7β-trihydroxy-4α-methylergosta-8,24(28)-dien-11-on-25S-26-oic acid]: the “Liver lipids total lipid” value in experiment [1] (setting [3]) is reported as 73.1 ± 4.7 mg/g; in experiment [1] (setting [4]), 66.0 ± 4.8 mg/g; in experiment [1] (setting [5]), 64.5 ± 5.2 mg/g. Further, the Liver lipids triacylglycerol in experiment [1] (setting [3]) came to 56.3 ± 4.2 µmol/g; in experiment [1] (setting [4]), 45.7 ± 3.9 µmol/g; in experiment [1] (setting [5]), 45.2 ± 4.6 µmol/g. In addition, the “Hepatocellular ballooning Mean score” value was determined as 0.7 ± 0.2 in experiment [2] (setting [3]), 0.5 ± 0.2 in experiment [2] (setting [4]) and 0.4 ± 0.2 in experiment [2] (setting [5]). Further, the “mRNA levels of G6Pase” value with G6Pase was “significantly decreased”. The “mRNA levels of DGAT2” value in the experiment on DGAT2 is listed as “significantly decreased”. Also, the “mRNA levels of apoCIII” value in the experiment with apoCIII is reported as “significantly decreased”.

Consider `CN(C)C(=N)N=C(N)N` [Metf, metformin, reference compound], for which, in experiment [1] (setting [6]), the “Liver lipids total lipid” value is reported as 65.3 ± 4.9 mg/g and the Liver lipids triacylglycerol is 45.4 ± 4.2 µmol/g. For the same molecule, the “Hepatocellular ballooning Mean score” value in experiment [2] (setting [6]) is 0.7 ± 0.2. In the experiment on G6Pase, the “mRNA levels of G6Pase” value is recorded as “significantly decreased”. Further, in the experiment on DGAT2, the “mRNA levels of DGAT2” value is listed as “significantly decreased”. Further, the “mRNA levels of apoCIII” value with apoCIII is given as “significantly decreased”.
